According to patent publication US8420652B2, “Use of aryl piperazine derivatives in manufacturing medicants for treating pain” (NHWA Pharma Corporation, priority 2008, dated 2013):
Where two headings read alike, the source gives them in different places.

Legend:
Type in all cases: in vivo
[1] = system: Kunming mice; assay: Acetic acid-induced writhing test; details: for ED50: Mus musculus, read-out: ED50, analgesic activity in writhing test
Method: Kunming mice (18-22 g, male and female each half) were divided into a negative control group, an Aspirin control group, a morphine control group and a group of the compound of the invention. Each group of mice were respectively administered corresponding medicine (0.2 ml/10 g) intragastrically or subcutaneously, The mice of the negative control group were administered, the same volume vehicle. After 60 minutes (intragastrically) or 30 minutes (subcutaneously), each group of mice were administered 0.6% acetic acid solution (0.4 ml) by intraperitoneal injecting, and then writhing times in 15 minutes were observed and recorded immediately. Writhing inhibition rate in mice was used as the pharmacodynamic index of analgesic activity. Writhing inhibition rate(%)=(writhing times of negative control group−writhing times of medicine group)/Writhing times of negative control group×100%
ED50 values were calculated according to the result.

[2] = system: KM female mice; assay: Hot-plate test in mice; details: for ED50: Mus musculus, 1 h, read-out: ED50, analgesic activity in the hot-plate test
Source text: Hot-plate test is one of conventional physiological pain models. Mice lick hind paws, jump up and so on when they are subject to thermal stimulus. Analgesics that take effect on central nervous system can increase the thermo-pain threshold, prolong the latency of protective response.
KM female mice weighting 18-22 g were employed in the test. Primary screening was done before the test to remove the animals whose responses were too slow (>30 s) or too sensitive (<6 s). The mice passing the primary screening were divided into a negative control group, a morphine control group and a group of the compound of the invention. Each group of mice were respectively administered corresponding dose of medicine intragastrically or by intravenous injection, and 60 minutes later, a hot-plate test was done on those mice. The time of first licking hind paws and jumping up was recorded (the data over 60 s is recorded as 60) and compared with the latency of the animals in the control group. The analgesic activity of each dose was calculated and ED50 was calculated from the analgesic activity.

[3] = system: Sprague-Dawley (SD) rats; assay: Spared nerve injury (SNI) test; details: intragastrically on Day 12, 13, 14 after surgery, mechanical allodynia at 60 minutes after administration; for ED50: Rattus norvegicus, po, read-out: ED50, analgesic activity in the spared nerve injury (SNI) test
Source text: Neuropathic pain is also called for short as neuralgia, which is a common chronic pain. It is an abnormal pain condition caused by hurt or disease-induced trauma of peripheral or central nerve, and can not be cured effectively till now. Sciatic nerve branches selective injury model (spared nerve injury, SNI) is a neuralgia model established in 2000 (see Spared nerve injury: an animal model of persistent peripheral neuropathic pain, Pain, 2000 August; 87(2): 149-58). The model can produce […] robust mechanical allodynia, so it can simulate the clinic nerve pathologic pain relatively well.
Adult male Sprague-Dawley (SD) rats weighting 200-250 g (Experimental Animal Center of Xuzhou Medical College) were employed in the test after acclimation by feeding for 1 week. First, Sciatic nerve branches selective injury model (spared nerve injury, SNI) was replicated, The rats of successful modeling were administered intragastrically on Day 12, 13, 14 after surgery. The mechanical allodynia were measured at 60 minutes after administration every day (von Frey Cilia Apparatus, manufactured by Institute of Biology Bioengineering, Chinese Academy of Medical Science).

[4] = system: Sprague-Dawley (SD) rats; assay: Bee venom test; details: for ED50, analgesic activity in the bee venom test: intrathecally, bee venom 5 minutes after administration; for ED50: Rattus norvegicus, central, 5 min, read-out: ED50, analgesic activity in the bee venom test
Method: Adult male Sprague-Dawley (SD) rats weighting 200-250 g were used in the test after acclimation by feeding for 1 week. First, tubes were placed intrathecally (i.t.) in rats. The rats with good conditions after 3-4 days were selected for the bee venom test. The animals were divided into an intrathecal DMSO group, an intrathecal morphine group and a group of intrathecal compounds of the invention. 5 minutes after administration, each group of rats was […] injected with 50 μl of bee venom at their left hind limbs. Times of feet spontaneous drawing back every 5 minutes in 60 minutes, as well as total times of feet drawing back in an hour were observed and recorded. The response latency to heat stimulus and threshold of mechanical stimulus on both thenars of each group of rats were measured before intrathecal administration and 2 hours after bee venom injection respectively.

[5] = po, intragastrically, acetic acid 60 minutes after dosing, writhing times in 15 minutes
[6] = sc, subcutaneously (S. C), acetic acid 30 minutes after dosing, writhing times in 15 minutes
[7] = intragastrically, acetic acid 60 minutes after dosing, writhing times in 15 minutes
[8] = subcutaneously (S. C), acetic acid 30 minutes after dosing, writhing times in 15 minutes
[9] = intragastrically, tested 60 minutes after dosing
[10] = intravenous injection, tested 60 minutes after dosing

Compound | ED50, analgesic activity in writhing test [1, 7] | ED50, analgesic activity in writhing test [1, 8] | ED50, analgesic activity in the hot-plate test [2, 9] | ED50, analgesic activity in the hot-plate test [2, 10] | ED50, analgesic activity in the spared nerve injury (SNI) test [3] | ED50, analgesic activity in the bee venom test [4] | other results
CC(=O)Oc1ccccc1C(=O)O [Aspirin, reference compound] | – | – | – | – | – | – | ED50 [1, 5]: 100 mg/kg; ED50 [1, 6]: 80 mg/kg
COc1ccccc1N1CCN(CC(=O)c2ccccc2)CC1 [Example 1] | 20 mg/kg | 15 mg/kg | 25 mg/kg | 8 mg/kg | 40 mg/kg | – | –
COc1cccc(N2CCN(CC(=O)c3ccccc3)CC2)c1 [Example 2] | 5 mg/kg | 2 mg/kg | – | – | 15 mg/kg | 0.1 mg/kg | –
COc1ccc(N2CCN(CC(=O)c3ccccc3)CC2)cc1 [Example 3] | 30 mg/kg | 20 mg/kg | 50 mg/kg | 19 mg/kg | 30 mg/kg | – | –
O=C(CN1CCN(c2ccccc2Cl)CC1)c1ccccc1 [Example 4] | 80 mg/kg | 36 mg/kg | – | – | 100 mg/kg | – | –
O=C(CN1CCN(c2cccc(Cl)c2)CC1)c1ccccc1 [Example 5] | 50 mg/kg | 18 mg/kg | 55 mg/kg | 20 mg/kg | 80 mg/kg | 0.06 mg/kg | –
O=C(CN1CCN(c2cccc(Cl)c2Cl)CC1)c1ccccc1 [Example 7] | 60 mg/kg | 20 mg/kg | 60 mg/kg | 20 mg/kg | 60 mg/kg | 0.08 mg/kg | –
O=C(CN1CCN(c2ccc(F)cc2)CC1)c1ccccc1 [Example 8] | – | – | – | – | – | – | ED50 [1, 5]: 120 mg/kg; ED50 [1, 6]: 80 mg/kg; ED50 [2, 10]: 40 mg/kg; ED50 ([2]; po, intragastrically, tested 60 minutes after dosing): 120 mg/kg; ED50 [4]: 0.12 mg/kg; ED50 [3]: 150 mg/kg
O=C(CN1CCN(c2cccc(C(F)(F)F)c2)CC1)c1ccccc1 [Example 9] | 3 mg/kg | 2 mg/kg | 20 mg/kg | 5 mg/kg | 10 mg/kg | 0.02 mg/kg | –
Cc1cccc(N2CCN(CC(=O)c3ccccc3)CC2)c1C [Example 10] | 5 mg/kg | 10 mg/kg | 30 mg/kg | 10 mg/kg | 15 mg/kg | 0.03 mg/kg | –
COc1ccc2nc(N3CCN(CC(=O)c4ccccc4)CC3)sc2c1 [Example 11] | 200 mg/kg | 120 mg/kg | 150 mg/kg | 60 mg/kg | 180 mg/kg | 0.2 mg/kg | –
Cc1ccc2nc(N3CCN(CC(=O)c4ccccc4)CC3)sc2c1 [Example 12] | 180 mg/kg | 100 mg/kg | – | – | 200 mg/kg | – | –
O=C(CN1CCN(c2nc3ccc(Cl)cc3s2)CC1)c1ccccc1 [Example 14] | 152 mg/kg | 78 mg/kg | – | – | 152 mg/kg | – | –
O=C(CN1CCN(c2ncccn2)CC1)c1ccccc1 [Example 16] | – | – | – | – | – | – | ED50 [1, 5]: 132 mg/kg; ED50 [1, 6]: 100 mg/kg; ED50 [3]: 167 mg/kg
NCC1(CC(=O)O)CCCCC1 [Gabapentin, reference compound] | – | – | – | – | – | – | ED50 [3]: 50 mg/kg
CN1CC[C@]23c4c5ccc(O)c4O[C@H]2[C@@H](O)C=C[C@H]3[C@H]1C5 [Morphine, reference compound] | – | – | – | – | – | – | ED50 ([1]; po): 4 mg/kg; ED50 ([1]; sc): 1 mg/kg; ED50 ([2]; iv): 1 mg/kg; ED50 ([2]; po): 2 mg/kg; ED50 [4]: 0.005 mg/kg
